Laboratory results from patent US20240076630A1, “METHODS FOR GENERATING NEURAL TISSUE AND USES THEREOF” (priority 2015, published 2024).

Test system: human brain organoids
Assay type: cell-based

Substance | mean spiking rate (NBQX 20 μM, n=9 units, p<0.05, two-tailed Wilcoxon signed rank test, FIG. 4D bottom panel legend) | NBQX-treated median firing rate (bath application of 20 μM NBQX, 95% CI 0.0023 to 0.2048, n=12 units from 4 organoids) | reduction of the median mean firing rate (bath application of 20 μM NBQX, vs baseline median firing rate 0.3800 Hz, p=0.0005, n=12 units from 4 organoids) | spike rate
2,3-Dioxo-6-nitro-1,2,3,4-tetrahydrobenzo[f]quinoxaline-7-sulfonamide disodium salt [NBQX] | attenuated | 0.0733 Hz | 81% | 
Tetrodotoxin citrate [TTX] |  |  |  | suppressed
